This is an account of results in ChEMBL document CHEMBL1201862, “PubChem BioAssay data set” (2004).

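Dose response: 5 concentrations. Exposure: 48 h. Format: 96-well plates. Endpoint: linear interpolation; highest concentration if not reached. GI50 marks 50% less growth.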 Calls of active or inactive are those of the source. Cut-off read from the data, not from the text of the source: active = GI50 up to about 1.1 µM and inactive = higher. *1 amine or outer side, *2 acyl side, *3 side chain or, on linkers, in order; H or OH if unused. Where a SMILES comes first, the peptide text is derived from it. Bridges are numbered along the chain shown (N, C = ends). Roman numbers before positions name the chains, in order. [ ]: non-standard residue; d: D form. Actinocin(1to9) = Cc1c2oc3c(C)ccc(C(=O)[*:2])c3nc-2c(C(=O)[*:1])c(N)c1=O; NMeV = CN[CH](C(=O)O)C(C)C; Sar = CNCC(=O)O A value given as a limit tells only on which side of the number the result lay.

What all share (assay): NCI anticancer screen, dose series, 48 h
Experiment [1] relates to SNB-19.
The test system of experiment [2] is NCI-H226.
For experiment [3], the system named is HCT-15.
Experiment [4] deals with EKVX.
In experiment [5] the test system is Malme-3M.
For experiment [6], the system named is A549.
Experiment [7] concerns MDA-N.
Experiment [8] deals with HOP-62.
Experiment [9] has as its system CCRF-CEM.
The subject of experiment [10] is K562.
The subject of experiment [11] is IGROV-1.
Experiment [12] concerns OVCAR-3.
Experiment [13] deals with SK-MEL-28.
For experiment [14], the system named is A498.
Experiment [15] deals with CAKI-1.
Experiment [16] has as its system DU-145.
Experiment [17] concerns MDA-MB-231.
For experiment [18], the system named is MCF7.
Experiment [19] has as its system ACHN.
For experiment [20], the system named is NCI-H23.

In the case of `CN(C)/C=N/c1ccc2nonc2c1`, the GI50 in experiment [1] is > 100 µM (inactive); in experiment [2] it was > 100 µM (inactive); in experiment [3], > 100 µM; in [4], > 100 µM (inactive); in [5], > 100 µM (inactive); in [6], > 100 µM (inactive). The GI50 in experiment [7], in experiment [8], in [9], in experiment [10], in [11] and in experiment [12] was > 100 µM (inactive) each time. Moreover, the GI50 in experiment [13], in [14], in [15], in experiment [16], in [17] and in [18] was > 100 µM (inactive) throughout. The GI50 in experiment [19] and in experiment [20] was > 100 µM (inactive) in each case.
As for `Cc1cccc(-c2cc(O)c3cc(C)cnc3n2)c1`, the GI50 is 0.366 µM (active) in experiment [1]; 0.238 µM (active) in experiment [2]; 0.183 µM in experiment [3]; 0.705 µM (active) in [4]; 0.111 µM (active) in [5]; 0.279 µM (active) in experiment [6]. Moreover, the GI50 in experiment [7] was 0.0194 µM (active); in [8], 0.373 µM (active); in experiment [9] it was 0.202 µM (active); in [10] it was 0.0411 µM (active); in experiment [11], 0.54 µM (active); in experiment [12], 0.143 µM (active). In addition, the GI50 in [13] is 1.63 µM (inactive); in [14] it was 0.372 µM (active); in [15], 0.199 µM (active); in experiment [16], 0.279 µM (active); in experiment [17], 0.518 µM (active); in experiment [18], 0.305 µM (active). The values for the GI50 in experiment [19] and in [20] were 0.532 µM (active) and 0.344 µM (active), respectively.
As to `CCC(C)C1NC(=O)C(NC(=O)c2c3nc4c(C(=O)NC5C(=O)NC(C(C)C)C(=O)N6CCCC6C(=O)N(C)CC(=O)N(C)C(C(C)C)C(=O)OC5C)ccc(C)c4oc-3c(C)c(=O)c2N)C(C)OC(=O)C(C(C)C)N(C)C(=O)CN(C)C(=O)C2CCCN2C1=O` (stereo not given) (I: TIP[Sar][NMeV] / II: TVP[Sar][NMeV]; ester I:1-I:C, II:1-II:C; linker I:N-II:N via Actinocin(1to9); configuration not given here), the GI50 in experiment [1] was < 0.0001 µM (active); in experiment [2] it was 0.0101 µM (active); in experiment [3] it was 0.0807 µM; in [4] it was 0.00377 µM (active); in experiment [5], 0.000689 µM (active); in [6], 0.000431 µM (active). The GI50 in [7] was 0.000135 µM (active); in experiment [8] it was 0.000594 µM (active); in experiment [9] it was 0.000421 µM (active); in [10], < 0.0001 µM (active); in [11] it was 0.00393 µM (active); in experiment [12], 0.0185 µM (active). For the same molecule, the GI50 was 0.000733 µM (active) in [13]; 0.000197 µM (active) in [14]; 0.00378 µM (active) in experiment [15]; 0.00475 µM (active) in [16]; 0.000173 µM (active) in experiment [17]; < 0.0001 µM (active) in experiment [18]. The values for the GI50 in experiment [19] and in experiment [20] were 0.000647 µM (active) and 0.000697 µM (active), respectively.
Take `CC(=O)OCC1OC(n2c(C#N)cc(=O)[nH]c2=O)CC1OC(C)=O` (stereo not given): the GI50 in [1] was > 100 µM (inactive); in experiment [2], > 100 µM (inactive); in experiment [3], > 100 µM; in experiment [4], > 100 µM (inactive); in experiment [5], > 100 µM (inactive); in experiment [6] it was > 100 µM (inactive). The GI50 in experiment [7], in experiment [8], in [9], in experiment [10], in experiment [11] and in [12] was > 100 µM (inactive) in each case. Also, the GI50 in experiment [13], in experiment [14], in [15], in experiment [16], in experiment [17] and in [18] was > 100 µM (inactive) throughout. For the same molecule, the GI50 in experiment [19] and in experiment [20] was > 100 µM (inactive) throughout.
